For one molecule, IC50 results are on record in ChEMBL document CHEMBL1800032, “Allosteric and ATP-competitive kinase inhibitors of mTOR for cancer treatment” (Bioorg Med Chem Lett, 2010).

In this experiment the target is Serine/threonine-protein kinase mTOR (Homo sapiens, UniProt P42345). Description: Inhibition of recombinant mTOR assessed as inhibition of S6K T389 phosphorylation by DELFIA assay.

A word on the IC50: it is the point on the concentration scale where inhibition reaches its midpoint. Consider `COC(=O)Nc1ccc(-c2nc(N3CCOCC3)c3cnn(C4CCN(C(=O)OC)CC4)c3n2)cc1`, for which the IC50 was determined as 5 nM.
